Experimental data reported in patent US6841661B2, “Glycopeptide antibacterial compounds, compositions containing same and methods of using same” (Princeton Univerisity, priority 1999, dated 2005).
Values after ≈ are worked out from the molar mass of the structure shown. Values joined by “and” are separate entries in the source; they are usually repeats but may differ in a detail not shown here. Equal entries are not always repeated.

What was measured:
[1] = system: S. aureus MB 2985; test: MIC by microdilution in Mueller-Hinton broth (in vivo study); assay type: cell-based; details: inoculum 1.4 × 10^5 cfu/mL in cation adjusted MHB
Experimental: The MIC is determined by microdilution in Mueller-Hinton broth (MHB) according to the National Committee for Clinical Laboratory Standards guidelines after incubation for 24 hours. Enterococci are tested in cation-supplemented Mueller-Hinton broth at 1.4×10^5 cfu/ml. MIC is defined as the lowest concentration of antibiotic, which inhibits visible growth.

[2] = system: E. coli ASP #49 (envA-); test: In vitro MIC panel assay (NCCLS broth microdilution); assay type: cell-based; details: E. coli ASP #49 (envA−); MH II broth
From the text: (§1) National Committee for Clinical Laboratory Standards (NCCLS) guidelines [Methods for Dilution Antimicrobial Susceptibility Tests for Bacteria that Grow Aerobically-Fourth Edition; Approved Standard (NCCLS Document M7-A4, January 1997)] are used to establish the assay, although variations are made to optimize the published method according to the specific needs of the present investigation.
(§2) The test panel currently includes eight enterococci and 13 staphylococci, which are selected based upon their antibiotic susceptibility profiles. The methicillin-sensitive Staphylococcus aureus (MSSA) strain MB2985 (Smith isolate) is used to assesses the potential for serum protein binding of the compounds. The paired Gram-negative strains ASP #49 (envA-) and ASP #50 (envA+) (M. Salvatore/N. Lee) are included to judge membrane effects. Table 3 presents a detailed description of the strains included in the panel, including some of the sources of the strains of bacteria.
(§3) The glycopeptide antibiotic teicoplanin is included whenever possible.
(§4) TSB, containing 10% HS* for vancomycin intermediate S. aurcus/methicillin-resistant S. aureus (VISA/MRSA) strains, is inoculated from an appropriate source (frozen broth or agar slant) and grown approximately 17 hr at 35° C. with shaking at 220 rpm. Cultures are grown in tubes with a volume of 5 ml for enterococci and 2 ml for all other strains.
(§5) Four milliliter (4 ml) overnight culture is added to 36 ml physiological saline to obtain tenfold dilutions (enterococci). Overnight culture (0.4 ml) is added to 39.6 ml saline to obtain 100-fold dilutions (all strains except enterococci). Diluted cultures are maintained on ice until time of inoculation of test plates.
(§6) The number of CFU/mL is determined on BHI agar plates, although this is not done routinely because titers of overnight cultures are relatively constant. The test media include: • BHI for enterococci and VISA/MRSA; • MH II (i.e., cation-adjusted Mueller-Hinton broth) for MRS, MSS and E. coli.; • MH II+HSA for MSSA is prepared as follows: • a. 2×MHII+86mg/ml HSA • b. Dissolve 4.3 g HSA in 50 ml autoclaved 2x MH II. • c. pH to 7.0 by adding 2M MOPS, sodium. • d. Filter sterilize using 0.22 μm Coming cellulose acetate filter, used because of reported low protein binding. • e. 1×MH II+43 mg/ml HSA • f. Dilute the 2×medium twofold and filter as above. 5.8.6. Preparation of Test Plates
(§7) Using a Denley liquid handling system (or similar automatic device), 100 μ1×medium is added to each well in columns 2-12 of a 96-well microtiter dish. Using a multichannel pipettor, 100 μl 2×medium is added to each well in column 1. Plates may be filled on the day prior to assay, wrapped in plastic bags and refrigerated.
(§8) Vancomycin, Schering 29482, and teicoplanin are prepared on a weight per volume basis using 10 mM 3-(N-morpholino)propane-sulfonic acid (MOPS) buffer pH 7. Test compounds are received in solution in appropriate solvent (typically as 1 mg/ml in DMSO) or are dissolved in appropriate solvent prior to further dilution in 10 mM MOPS buffer, ph7. Consistent with NCCLS guidelines, antibiotics are handled aseptically but are not otherwise sterilized.
(§9) 100 μl appropriately diluted antibiotic solution is added to the first well of the designated row of the 96-well microtiter dish and serially diluted by twofold across the row using the Denley liquid handling system. With the aid of a Dynatech NEC 2000 inoculator, each well of the microtiter dish is inoculated with 1.5 μl diluted overnight culture, yielding approximately 1-5×10^6 CFU/ml for enterococci and approximately 3-7×10^5 CFU/ml for all other strains. Dishes are placed in stacks of no more than five, wrapped in plastic bags and incubated at 35° C. • Indication of result(s) type (% INH, IC50, Zone size, etc.) • MIC=minimum inhibitory concentration ps 5.8.9. Interpretation of the Results on the Basis of Activity […]

[3] = system: E. coli ASP #50 (envA+); test: as above; assay type: cell-based; details: E. coli ASP #50 (envA+); MH II broth
From the text: as §1, §2, §3, §4, §5, §6, §7, §8, §9

[4] = system: MRCNS CL 202 (S. haem.); test: as above; assay type: cell-based; details: MRCNS CL 202 (S. haem.); MH II broth
From the text: as §1, §2, §3, §4, §5, §6, §7, §8, §9

[5] = system: MRCNS CL 3069 (S. epi.); test: as above; assay type: cell-based; details: MRCNS CL 3069 (S. epi.); MH II broth
From the text: as §1, §2, §3, §4, §5, §6, §7, §8, §9

[6] = system: MRSA MH 76; test: as above; assay type: cell-based, Staphylococcus aureus; details: MRSA MH 76; MH II broth
From the text: as §1, §2
The glycopeptide antibiotic teicoplanin is included whenever possible. […]
The number of CFU/mL is determined on BHI agar plates, although this is not done routinely because titers of overnight cultures are relatively constant. […]

[7] = Pharmacokinetic studies; assay type: in vivo; details: compared with compound 2; stated as and/or
[8] = system: E. faecium CL 5053 (VanA); test: microbe, parasite or virus in culture; assay type: cell-based; details: E. faecium CL 5053 (VanA); BHI broth
Method in brief: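 Twofold broth microdilution per modified NCCLS M7-A4, 35 °C. Enterococci and VISA/MRSA in BHI (VISA/MRSA precultured in TSB + 10% HS), E. coli in MH II. Inocula ~1-5×10^6 CFU/ml for enterococci, ~3-7×10^5 CFU/ml otherwise. MIC is the lowest concentration with no visible growth, read at 18-20 hr (E. coli) or 22-24 hr.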

[9] = system: Staphylococcus aureus strain MB2985; test: In vivo mouse methicillin-sensitive Staphylococcus aureus septicemia protection; design: species or system ICR female mice
Experimental: Selected compounds of the invention are tested in an in vivo mouse model. Single dose subcutaneous antibiotic protection from septicemic infections is measured as described by Gill, C. J., J. J. Jackson, L. Gerckens, B. Pelak, R. Thompson, J. Sundelof, H. Kropp and H. Rosen. Antimicrob. Agents Chemother. 42:1996-2001 (1998). Survival is monitored for seven days. ED50's and LD50's are determined by the method of Knudsen and Curtis. J. Am. Stat. Assoc. 42:282-296 (1947). Septicemia is induced in 20 gram ICR (derived from CD-I) female mice by intraperitoneal infection with Staphylococcus aureus strain MB2985. Infection is given i.p. in Brain Heart Broth (BHB) at an infectious inoculum of 1.8×10^7 cfu/mouse. Drug is administered subcutaneously immediately after the infection is initiated.

[10] = mouse septicemia, S. aureus 2985 i.p. 1.8 × 10^7 cfu/mouse, single s.c. dose at 0 hr, survival seven days

CNC(CC(C)C)C(=O)NC1C(=O)NC(CC(N)=O)C(=O)NC2C(=O)NC3C(=O)NC(C(=O)NC(C(=O)O)c4cc(O)cc(O)c4-c4cc3ccc4O)C(O)c3ccc(c(Cl)c3)Oc3cc2cc(c3OC2OC(CN)C(O)C(O)C2OC2CC(C)(NCc3ccc(OCc4ccc(Cl)c(Cl)c4)cc3)C(O)C(C)O2)Oc2ccc(cc2Cl)C1O (centres unmarked) [Compound 13, Glucos-6-amino-N-4-(3,4-dichlorobenzyloxy)benzyl-vancosamino-vancomycin]
MIC [1]: 0.125 mg/L (≈ 0.073 µM)
MIC [2]: 16 mg/L and 8 mg/L
MIC [3]: >64 mg/L and 64 mg/L
MIC [4]: 0.12 mg/L and 0.06 mg/L
MIC [5]: 0.06 mg/L and 0.03 mg/L
MIC [6]: 0.25 mg/L (≈ 0.146 µM)
bioavailability [7]: unexpectedly greater bioavailability
clearance rate [7]: faster clearance rate
tissue distribution [7]: more favorable tissue distribution
MIC [8]: 1 mg/L and 2 mg/L
ED50/MIC ([9]; S. aureus 2985, ratio of s.c. ED50 to MIC): 3.12
ED0 (s.c.) [9, 10]: 0.195 mg/kg
ED50 (s.c.) [9, 10]: 0.390 mg/kg
ED100 (s.c.) [9, 10]: 0.780 mg/kg
